# Experiment: Stability of the flavonoid in aqueous L-arginine/sodium ascorbate solution at 50° C., intact amount by HPLC
# Format: physicochemical
# Conditions: for amount of intact flavonoid remaining, of the initial amount in the solution: dissolved in water with L-arginine and sodium ascorbate, HPLC
# Method: A composition containing rutin, L-arginine, and ascorbate was prepared in water by mixing 0.0071 mol rutin with an aqueous solution containing 0.020 mol L-arginine, heating the mixture to 80° C. until the rutin dissolved completely, and adding 0.0010 mol sodium ascorbate.
# After cooling the above solution, the stability of rutin was tested by heating the mixture to 50° C. and quantifying the amount of intact rutin remaining by HPLC after 0 h, 5 h, and 24 h.
smiles,measurement,setting,value
C[C@@H]1O[C@@H](OC[C@H]2O[C@@H](Oc3c(-c4ccc(O)c(O)c4)oc4cc(O)cc(O)c4c3=O)[C@H](O)[C@@H](O)[C@@H]2O)[C@H](O)[C@H](O)[C@H]1O [rutin],"amount of intact flavonoid remaining, of the initial amount in the solution",5 h at 50° C.,100%
same,"amount of intact flavonoid remaining, of the initial amount in the solution",24 h at 50° C.,97.2%
same,flavonoid degraded,"after 24 h at 50° C., with L-arginine and sodium ascorbate",2.8%
